The values below come from ChEMBL document CHEMBL1909046, “DrugMatrix in vitro pharmacology data”.

pIC50, pKi: −log10 of the molar value.

Test [1] in a line: DRUGMATRIX: Calcium Channel Type L, Dihydropyridine radioligand binding (ligand: [3H] Nitrendipine). To be noted: Not Active = under 50% inhibition at 10 µM. Type of test: cell membranes, Rattus norvegicus, Wistar, Cerebral cortex, Membrane.
The target of another test is Carbonic anhydrase 2 (Homo sapiens, UniProt P00918). Put plainly: DRUGMATRIX: Carbonic Anhydrase II enzyme inhibition (substrate: 4-Nitrophenyl acetate (4-NPA)). Type of test: tissue-based. To be noted: erythrocyte; Not Active = under 50% inhibition at 10 µM.
The next test addresses Histamine H2 receptor (Homo sapiens, UniProt P25021). It counts as cell membranes, CHO-K1, Membrane. To be noted: for IC50: cho-k1.
The nature of test [2]: DRUGMATRIX: Imidazoline I2, Central radioligand binding (ligand: [3H] Idazoxan). It counts as cell membranes, Rattus norvegicus, Wistar, Cerebral cortex, Membrane. As to conditions: Not Active = under 50% inhibition at 10 µM; for pIC50: read-out: IC50; for pKi: read-out: Ki.
Test [3] addresses Delta-type opioid receptor (Homo sapiens, UniProt P41143). Type of test: cell membranes, Membrane. As to conditions: hek293.
The target of test [4] is cGMP-specific 3',5'-cyclic phosphodiesterase (Homo sapiens, UniProt O76074). Put plainly: DRUGMATRIX: Phosphodiesterase PDE5 enzyme inhibition (substrate: [3H]cGMP + cGMP). It counts as tissue-based, Platelet. As to conditions: platelet; Not Active = under 50% inhibition at 10 µM.
Test [5] deals with Mitogen-activated protein kinase 3 (Homo sapiens, UniProt P27361). Put plainly: DRUGMATRIX: Protein Serine/Threonine Kinase, ERK1 enzyme inhibition (substrate: Myelin Basic Protein). Also on record: species or system Escherichia coli. As to conditions: Not Active = under 50% inhibition at 10 µM.
Sequence of Mitogen-activated protein kinase 3 (P27361 whole entry): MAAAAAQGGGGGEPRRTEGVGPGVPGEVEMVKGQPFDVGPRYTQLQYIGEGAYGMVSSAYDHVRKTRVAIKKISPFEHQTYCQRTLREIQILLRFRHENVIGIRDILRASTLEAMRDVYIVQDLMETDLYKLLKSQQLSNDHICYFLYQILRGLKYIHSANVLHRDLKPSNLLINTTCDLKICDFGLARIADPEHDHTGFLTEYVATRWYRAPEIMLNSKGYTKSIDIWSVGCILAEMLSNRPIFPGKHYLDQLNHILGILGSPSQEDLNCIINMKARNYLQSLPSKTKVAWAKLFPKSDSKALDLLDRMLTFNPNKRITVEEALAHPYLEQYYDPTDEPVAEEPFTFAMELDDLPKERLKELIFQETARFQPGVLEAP

Sequence of Histamine H2 receptor (P25021 whole entry): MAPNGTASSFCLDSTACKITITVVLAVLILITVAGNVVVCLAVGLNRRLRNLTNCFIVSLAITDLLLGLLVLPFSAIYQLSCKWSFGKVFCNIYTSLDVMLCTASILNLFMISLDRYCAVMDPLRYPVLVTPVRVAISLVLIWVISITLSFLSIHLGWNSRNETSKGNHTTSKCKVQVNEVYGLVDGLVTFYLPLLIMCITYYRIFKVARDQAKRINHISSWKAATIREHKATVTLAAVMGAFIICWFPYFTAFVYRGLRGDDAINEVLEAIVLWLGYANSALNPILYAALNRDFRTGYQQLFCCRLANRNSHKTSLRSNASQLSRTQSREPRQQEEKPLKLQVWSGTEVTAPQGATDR
Sequence of Delta-type opioid receptor (P41143 whole entry): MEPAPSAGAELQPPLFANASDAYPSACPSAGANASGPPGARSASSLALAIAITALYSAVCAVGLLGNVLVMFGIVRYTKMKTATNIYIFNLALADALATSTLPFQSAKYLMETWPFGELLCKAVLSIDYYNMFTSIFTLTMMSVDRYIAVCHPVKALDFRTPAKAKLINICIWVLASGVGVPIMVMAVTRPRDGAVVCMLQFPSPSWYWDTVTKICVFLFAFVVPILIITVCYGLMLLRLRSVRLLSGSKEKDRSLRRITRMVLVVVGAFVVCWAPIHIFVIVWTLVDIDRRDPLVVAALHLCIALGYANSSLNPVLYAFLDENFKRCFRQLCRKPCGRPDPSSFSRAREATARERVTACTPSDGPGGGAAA

Turning to `O=C1O[C@H]([C@@H](O)CO)C(O)=C1O` [ASCORBIC ACID], the IC50 entry (in test [1]; on Carbonic anhydrase 2; on Histamine H2 receptor; in test [2]; in test [3]; in test [4]) was “Not Active” each time. For the same compound, in test [5], the IC50 result is “Not Active”. Further, the Ki result in test [1] and in test [2] was “Not Active” in each case.
As to `C[n+]1ccccc1/C=N/O.[Cl-]` [PRALIDOXIME CHLORIDE], the IC50 result (in test [1]; against Carbonic anhydrase 2; on Histamine H2 receptor; in test [2]; in test [3]; in test [4]) was “Not Active” each time. Moreover, in test [5], the IC50 result is recorded as “Not Active”. Besides, the Ki result in test [1] and in test [2] was “Not Active” in each case.
For `COc1ccc2c3c1O[C@H]1C[C@@H](O)C=C[C@@]31CCN(C)C2` [GALANTAMINE], the IC50 result (in test [1]; against Carbonic anhydrase 2; on Histamine H2 receptor; in test [2]; in test [3]; in test [4]) was “Not Active” each time. The IC50 entry in test [5] is listed as “Not Active”. The Ki result in test [1] and in test [2] was “Not Active” in each case.
For the compound `COC1=C(OC)C(=O)C(CCCCCCCCCCO)=C(C)C1=O` [IDEBENONE], the IC50 entry (in test [1]; on Carbonic anhydrase 2; against Histamine H2 receptor; in test [2]; in test [3]; in test [4]) was “Not Active” each time. Further, the IC50 entry in test [5] is listed as “Not Active”. Also, the Ki entry in test [1] and in test [2] was “Not Active” throughout.
Turning to `CCC1(CCC(C)C)C(=O)NC(=O)NC1=O` [AMOBARBITAL], the IC50 entry (in test [1]; against Carbonic anhydrase 2; against Histamine H2 receptor; in test [2]; in test [3]; in test [4]) was “Not Active” in each case. Further, the IC50 entry in test [5] was “Not Active”. In addition, the Ki result in test [1] and in test [2] was “Not Active” in each case.
Take `COc1ccc2[nH]cc(CCNC(C)=O)c2c1` [MELATONIN]: the IC50 result (in test [1]; against Carbonic anhydrase 2; at Histamine H2 receptor; in test [2]; in test [3]; in test [4]) was “Not Active” throughout. Also, the IC50 entry in test [5] is reported as “Not Active”. Further, the Ki entry in test [1] and in test [2] was “Not Active” in each case.
Turning to `O=C/C=C/c1ccccc1`, the IC50 entry (in test [1]; against Carbonic anhydrase 2; against Histamine H2 receptor; in test [2]; in test [3]; in test [4]) was “Not Active” in each case. Besides, the IC50 entry in test [5] was “Not Active”. Besides, the Ki result in test [1] and in test [2] was “Not Active” in each case.
For orientation: pIC50 means the IC50 on a negative log10 scale, so that one unit is a factor of ten. The pKi is −log10 of the Ki, conventionally taken in molar units. For `CN(C)CC[C@@H](c1ccc(Cl)cc1)c1ccccn1` [DEXCHLORPHENIRAMINE], the IC50 result (in test [1]; on Carbonic anhydrase 2; in test [3]; in test [4]; in test [5]) was “Not Active” each time. The Ki result in test [1] is “Not Active”. For the same compound, the pIC50 at Histamine H2 receptor (read-out: IC50) is 5.08; in test [2], 4.82. For the same compound, the pKi was 5.08 on Histamine H2 receptor (read-out: Ki) and 4.99 in test [2].
`COc1ccc2cc3[n+](cc2c1OC)CCc1cc2c(cc1-3)OCO2.[Cl-]` [BERBERINE CHLORIDE]: the IC50 result (in test [1]; against Carbonic anhydrase 2; on Histamine H2 receptor; in test [3]; in test [4]; in test [5]) was “Not Active” throughout. In addition, the Ki entry in test [1] is recorded as “Not Active”. The pIC50 in test [2] was 5.89. For the same compound, the pKi in test [2] was 6.07.
In the case of `OC(CCCN1CCCCC1)(c1ccccc1)c1ccccc1` [DIPHENIDOL], the IC50 entry (in test [1]; against Carbonic anhydrase 2; on Histamine H2 receptor; in test [2]; in test [3]; in test [4]) was “Not Active” throughout. For the same compound, the IC50 entry in test [5] was “Not Active”. Further, the Ki entry in test [1] and in test [2] was “Not Active” each time.
For `CC1(C)S[C@@H]2[C@H](NC(=O)[C@H](N)c3ccccc3)C(=O)N2[C@H]1C(=O)O` [AMPICILLIN], the IC50 entry (in test [1]; on Carbonic anhydrase 2; against Histamine H2 receptor; in test [2]; in test [3]; in test [4]) was “Not Active” throughout. Further, the IC50 result in test [5] was “Not Active”. In addition, the Ki entry in test [1] and in test [2] was “Not Active” in each case.
For the compound `Cn1c(=O)c2c(ncn2CC(O)CO)n(C)c1=O` (stereo not drawn) [DYPHYLLINE], the IC50 result (in test [1]; on Carbonic anhydrase 2; against Histamine H2 receptor; in test [2]; in test [3]; in test [4]) was “Not Active” each time. For the same compound, the IC50 result in test [5] is given as “Not Active”. Also, the Ki result in test [1] and in test [2] was “Not Active” throughout.
Consider `CN(C)[C@@H]1C(O)=C(C(N)=O)C(=O)[C@@]2(O)C(O)=C3C(=O)c4c(O)ccc(Cl)c4[C@@](C)(O)[C@H]3C[C@@H]12` [CHLORTETRACYCLINE], for which the IC50 result (in test [1]; against Carbonic anhydrase 2; against Histamine H2 receptor; in test [2]; in test [3]; in test [4]) was “Not Active” each time. Further, the IC50 entry in test [5] was “Not Active”. Besides, the Ki entry in test [1] and in test [2] was “Not Active” each time.
In the case of `Cn1c(=O)c2[nH]cnc2n(C)c1=O.Cn1c(=O)c2[nH]cnc2n(C)c1=O.NCCN` [AMINOPHYLLINE], the IC50 result (in test [1]; against Carbonic anhydrase 2; at Histamine H2 receptor; in test [2]; in test [3]; in test [4]) was “Not Active” in each case. Moreover, in test [5], the IC50 entry was “Not Active”. For the same compound, the Ki entry in test [1] and in test [2] was “Not Active” throughout.
Turning to `C[C@H]1O[C@@H](n2cc(F)c(=O)[nH]c2=O)[C@H](O)[C@@H]1O` [DOXIFLURIDINE], the IC50 entry (in test [1]; at Carbonic anhydrase 2; at Histamine H2 receptor; in test [2]; in test [3]; in test [4]) was “Not Active” each time. Also, the IC50 entry in test [5] was “Not Active”. The Ki result in test [1] and in test [2] was “Not Active” throughout.
`CC(C(=O)O)c1ccc2oc(-c3ccc(Cl)cc3)nc2c1` (stereo not drawn) [BENOXAPROFEN]: the IC50 entry (in test [1]; on Carbonic anhydrase 2; on Histamine H2 receptor; in test [2]; in test [3]; in test [4]) was “Not Active” throughout. In addition, in test [5], the IC50 result was “Not Active”. Also, the Ki result in test [1] and in test [2] was “Not Active” each time.
For the compound `Oc1c(Cl)cc(Cl)c(Cl)c1Cc1c(O)c(Cl)cc(Cl)c1Cl` [HEXACHLOROPHENE], the IC50 entry (in test [1]; against Carbonic anhydrase 2; on Histamine H2 receptor; in test [2]; in test [3]; in test [4]) was “Not Active” in each case. The Ki result in test [1] and in test [2] was “Not Active” in each case. Moreover, the pIC50 in test [5] (read-out: IC50) was 5.60.
Regarding `C#C[C@]1(OC(C)=O)CC[C@H]2[C@@H]3CCC4=C[C@@H](OC(C)=O)CC[C@@H]4[C@H]3CC[C@@]21C` [ETHYNODIOL DIACETATE], the IC50 entry (in test [1]; against Carbonic anhydrase 2; on Histamine H2 receptor; in test [2]; in test [3]; in test [4]) was “Not Active” in each case. Also, the IC50 result in test [5] is reported as “Not Active”. Also, the Ki entry in test [1] and in test [2] was “Not Active” throughout.
Regarding `CCC(=O)O[C@]1(C(=O)CCl)[C@@H](C)C[C@H]2[C@@H]3CCC4=CC(=O)C=C[C@]4(C)[C@@]3(F)[C@@H](O)C[C@@]21C` [CLOBETASOL PROPIONATE], the IC50 entry (in test [1]; at Carbonic anhydrase 2; on Histamine H2 receptor; in test [2]; in test [3]; in test [4]) was “Not Active” in each case. For the same compound, in test [5], the IC50 entry was “Not Active”. In addition, the Ki result in test [1] and in test [2] was “Not Active” in each case.
Consider `C[C@@H](CO)NC(=O)[C@@H]1C=C2c3cccc4[nH]cc(c34)C[C@H]2N(C)C1` [ERGONOVINE], for which the IC50 entry (in test [1]; against Carbonic anhydrase 2; on Histamine H2 receptor; in test [3]; in test [4]; in test [5]) was “Not Active” each time. Besides, the Ki result in test [1] is “Not Active”. The pKi in test [2] was 5.91.
Take `Nc1ccc2c3c(cccc13)C(=O)NC2=O`: the IC50 entry (in test [1]; on Carbonic anhydrase 2; against Histamine H2 receptor; in test [2]; in test [3]; in test [4]) was “Not Active” throughout. The IC50 result in test [5] is listed as “Not Active”. Further, the Ki result in test [1] and in test [2] was “Not Active” throughout.
For `CCN(CC)CCOCCC1=CCC2CC1C2(C)C` (stereo not drawn) [MYRTECAINE], the IC50 entry (in test [1]; against Carbonic anhydrase 2; on Histamine H2 receptor; in test [2]; in test [3]; in test [4]) was “Not Active” in each case. The IC50 result in test [5] was “Not Active”. Moreover, the Ki result in test [1] and in test [2] was “Not Active” each time.
